Results taken from patent publication US8026232B2, “Benzothiophene oxide derivative and salt thereof” (Toyama Chemical Co., Ltd., priority 2008, dated 2011).
Structures can show the parent of a compound that is named as a salt.

Experiment: Test Example 1: concentration of compound A in plasma and brain after oral administration to rats
Format: in vivo, rat
Conditions: for Brain MRT (mean residence time) of the compound A / Brain T1/2 (elimination half-life) of the compound A / Plasma MRT (mean residence time) of the compound A / Plasma T1/2 (elimination half-life) of the compound A: rat (Crl: CD male), oral, without fasting, 56 mg/kg compound A maleate or 58 mg/kg compound A oxide maleate; for Brain MRT (mean residence time) of the compound A / Brain T1/2 (elimination half-life) of the compound A: compound A measured in brain; for Plasma MRT (mean residence time) of the compound A / Plasma T1/2 (elimination half-life) of the compound A: compound A measured in plasma
Method: In the compound A administration solution, the concentration of the compound A maleate was adjusted to be 14 mg/mL by dissolving the compound A maleate in a physiological saline solution. In the compound A oxide administration solution, the concentration of the compound A oxide maleate was adjusted to be 14.54 mg/mL by dissolving the compound A oxide maleate in a physiological saline solution.
Each of the administration solutions was orally administered to rats (Crl: CD strain male rat: 8 weeks old) without fasting. The dosage was set at 56 mg/kg for the compound A administration group and 58 mg/kg for the compound A oxide administration group.
At 0.25, 0.5, 1, 2, 5, 8, 10 and 12 hours after the administration, for each group, heparinized whole blood was collected from the aorta abdominalis under mild ether anesthesia, and then the rats were killed by exsanguination and the brains were excised.
The collected blood was centrifuged at 4° C. for 10 minutes at approximately 1600×g to obtain the plasma. To 100 μL of the resulting plasma was added 900 μL of distilled water containing 25 ng/mL of the internal standard substance and 25 μL of phosphoric acid, and the resulting mixture was stirred, followed by adding to a solid-phase extraction plate (Oasis HLB 10 mg or 30 mg, manufactured by Waters) which was conditioned with methanol and distilled water. The solid-phase extraction plate was washed with 2 mL of distilled water, followed by eluting with 2 mL of acetonitrile. The eluate was concentrated and dried-up and then dissolved in a mobile phase A solution, followed by centrifuging at 4° C. for 10 minutes at approximately 1600×g. The resulting supernatant was subjected to a liquid chromatography-tandem mass spectrometer to determine the concentration of the compound A in the plasma of each group.
The excised brains were homogenized with 25% ammonia water/methanol (1:49) (10-fold volume of the wet brain weight) and then 2 mL of the homogenate was centrifuged at 4° C. for 10 minutes at approximately 1600×g to separate the supernatant. To the sediment was added 2 mL of 25% ammonia water/methanol (1:49), followed by centrifuging at 4° C. for 10 minutes at approximately 1600×g. These supernatants were combined and concentrated and dried-up and then dissolved in 1 mL of distilled water containing 25 ng/mL of the internal standard substance. To the resulting solution was added 25 μL of phosphoric acid and the resulting mixture was stirred, followed by subjecting to a solid-phase extraction operation similar to that for the above plasma. The resulting eluate was concentrated and dried-up and then dissolved in the mobile phase A solution or 50% methanol, followed by centrifuging at 4° C. for 10 minutes at approximately 1600×g. The resulting supernatant was subjected to the liquid chromatography-tandem mass spectrometer to determine the concentration of the compound A in the brain of each group.
The following instruments and conditions were used for the measurement of the concentration of the compound A.

[1] = rat, oral administration of the compound A oxide, result in words

| concentration of the compound A in the plasma and brain [1] | residence time of the compound A in the body [1] | Brain MRT (mean residence time) of the compound A [h] | Brain T1/2 (elimination half-life) of the compound A [h] | Plasma MRT (mean residence time) of the compound A [h] | Plasma T1/2 (elimination half-life) of the compound A [h] | SMILES |
| --- | --- | --- | --- | --- | --- | --- |
| maintained at a high concentration | prolonged |  |  |  |  | [O-][s+]1ccc2cc(CCOCCCN3CC(O)C3)ccc21 (stereo not shown) [compound A oxide, 1-(3-(2-(1-benzothiophen-5-yl)ethoxy)propyl)azetidin-3-ol S-oxide] |
|  |  | 3.01 | 1.53 | 2.86 | 1.56 | O=C(O)/C=C\C(=O)O.OC1CN(CCCOCCc2ccc3sccc3c2)C1 [Compound A Maleate, 1-(3-(2-(1-benzothiophen-5-yl)ethoxy)propyl)azetidin-3-ol maleate, reference compound] |
|  |  | 5.72 | 2.28 | 5.41 | 2.69 | [O-][s+]1ccc2cc(CCOCCCN3CC(O)C3)ccc21 (stereo not shown) [Compound A oxide Maleate, 1-(3-(2-(1-benzothiophen-5-yl)ethoxy)propyl)azetidin-3-ol S-oxide maleate] |
